Results from patent US6737383B1, “Herbicidal oxadiazolidines” (priority 1999, dated 2004).

Key:
rice = test: Test B flood test rice; format: in vivo, Oryza sativa
Outline: (§1)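 Flood test on plants grown to the 2-leaf stage; treated plants kept in greenhouse twelve to sixteen days, then visually rated against controls on a 0 (no effect) to 10 (complete control) scale.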

cocklebur = test: Test B pre/postemergence cocklebur; format: in vivo, Xanthium strumarium
Outline: (§2)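 Test chemicals in a non-phytotoxic solvent mixture with surfactant were sprayed preemergence onto planted seeds and postemergence onto plants 2 to 18 cm tall (1- to 4-leaf stage). After twelve to sixteen days in a greenhouse, injury was visually rated against untreated controls from 0 (no effect) to 10 (complete control).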

blackgrass = test: Test B pre/postemergence blackgrass; format: in vivo, Alopecurus myosuroides
Outline: as §2

morningglory = test: Test B pre/postemergence morningglory; format: in vivo, Ipomoea hederacea
Outline: as §2

giant foxtail = test: Test B pre/postemergence giant foxtail; format: in vivo, Setaria faberii
Outline: as §2

velvetleaf = test: Test B pre/postemergence velvetleaf; format: in vivo, Abutilon theophrasti
Outline: as §2

bamyardgrass = test: Test B flood test barnyardgrass; format: in vivo, Echinochloa crus-galli
Outline: as §1

wild oat = test: Test B pre/postemergence wild oat; format: in vivo, Avena fatua
Outline: as §2

purple nutsedge = test: Test B pre/postemergence purple nutsedge; format: in vivo, Cyperus rotundus
Outline: as §2

corn = test: Test B pre/postemergence corn; format: in vivo, Zea mays
Outline: as §2

sugar beet = test: Test B pre/postemergence sugar beet; format: in vivo, Beta vulgaris
Outline: as §2

wheat = test: Test B pre/postemergence wheat; format: in vivo, Triticum aestivum
Outline: as §2

rape = test: Test B pre/postemergence rape; format: in vivo, Brassica napus
Outline: as §2

bedstraw = test: Test B pre/postemergence bedstraw; format: in vivo, Galium aparine; details: Postemergence
Outline: as §2

crabgrass = test: Test B pre/postemergence crabgrass; format: in vivo, Digitaria sanguinalis
Outline: as §2

pigweed = test: Test B pre/postemergence pigweed; format: in vivo, Amaranthus retroflexus
Outline: as §2

soybean = test: Test B pre/postemergence soybean; format: in vivo, Glycine max
Outline: as §2

smallflower flatsedge = test: Test B flood test smallflower flatsedge; format: in vivo, Cyperus difformis
Outline: as §1

surinam grass = test: Test B pre/postemergence surinam grass; format: in vivo, Brachiaria decumbens
Outline: as §2

duck salad = test: Test B flood test duck salad; format: in vivo, Heteranthera limosa
Outline: as §1

[1] = Rate 62 g/ha, flood test species, Pre-emergence, visual evaluation after twelve to sixteen days
[2] = Rate 125 g/ha, under heading Pre-emergence, flood test species, visual evaluation after twelve to sixteen days
[3] = Rate 250 g/ha, Pre-emergence (flood test species), scale 0 to 10, 0 is no effect, 10 is complete control
[4] = Rate 500 g/ha, Pre-emergence section of Table B, 0 to 10 scale (0 no effect, 10 complete control)
[5] = Postemergence, Rate 125 g/ha, scale 0 to 10, 0 is no effect, 10 is complete control
[6] = Postemergence, Rate 250 g/ha, scale 0 to 10
[7] = Postemergence, Rate 500 g/ha, scale 0 to 10, 0 is no effect, 10 is complete control
[8] = Preemergence, Rate 62 g/ha, scale of 0 to 10 where 0 is no effect and 10 is complete control
[9] = Preemergence, Rate 125 g/ha, scale 0 to 10, 0 is no effect, 10 is complete control
[10] = Preemergence, Rate 250 g/ha, scale 0 to 10, 0 is no effect, 10 is complete control
[11] = Preemergence, Rate 500 g/ha, scale 0 to 10, 0 is no effect, 10 is complete control
[12] = Rate 62 g/ha, Postemergence, scale 0 to 10 (0 no effect, 10 complete control)

CC(C)N(C(=O)n1oc(=O)n(CC(=O)C2CC2)c1=O)c1ccccc1 [Compound 489]
Plant response rating, Rice (0 to 10 scale, 0 is no effect, 10 is complete control) (rice; [1]): 0
Rice plant response rating (0 to 10 scale, 0 is no effect, 10 is complete control) (rice; [2]): 0
Rice plant response rating (rice; [3]): 0
Rice plant response rating (rice; [4]): 0
Cocklebur plant response rating (cocklebur; [5]): 0
Cocklebur plant response rating (cocklebur; [6]): 0
Plant response rating, Cocklebur (cocklebur; [7]): 0
Plant response rating, Cocklebur (cocklebur; [8]): 0
Cocklebur plant response rating (cocklebur; [9]): 0
Cocklebur plant response rating (cocklebur; [10]): 0
Cocklebur plant response rating (cocklebur; [11]): 0
Cocklebur plant response rating (cocklebur; [12]): 0
Blackgrass plant response rating (blackgrass; [5]): 6
Blackgrass plant response rating (blackgrass; [6]): 8
Plant response rating, Blackgrass (blackgrass; [7]): 8
Plant response rating, Blackgrass (blackgrass; [8]): 7
Blackgrass plant response rating (blackgrass; [9]): 8
Blackgrass plant response rating (blackgrass; [10]): 9
Blackgrass plant response rating (blackgrass; [11]): 10
Blackgrass plant response rating (blackgrass; [12]): 1
Morningglory plant response rating (morningglory; [5]): 7
Plant response rating, Morningglory (morningglory; [7]): 10
Plant response rating, Morningglory (morningglory; [8]): 0
Morningglory plant response rating (morningglory; [9]): 0
Morningglory plant response rating (morningglory; [11]): 1
Morningglory plant response rating (morningglory; [12]): 2
Giant foxtail plant response rating (giant foxtail; [5]): 8
Plant response rating, Giant foxtail (giant foxtail; [7]): 9
Plant response rating, Giant foxtail (giant foxtail; [8]): 9
Giant foxtail plant response rating (giant foxtail; [9]): 10
Giant foxtail plant response rating (giant foxtail; [11]): 10
Giant foxtail plant response rating (giant foxtail; [12]): 2
Velvetleaf plant response rating (velvetleaf; [5]): 0
Plant response rating, Velvetleaf (velvetleaf; [7]): 5
Plant response rating, Velvetleaf (velvetleaf; [8]): 2
Velvetleaf plant response rating (velvetleaf; [9]): 2
Velvetleaf plant response rating (velvetleaf; [11]): 7
Velvetleaf plant response rating (velvetleaf; [12]): 0
Plant response rating, Barnyardgrass (0 to 10 scale, 0 is no effect, 10 is complete control) (bamyardgrass; [1]): 0
Barnyardgrass plant response rating (0 to 10 scale, 0 is no effect, 10 is complete control) (bamyardgrass; [2]): 0
Barnyardgrass plant response rating (bamyardgrass; [3]): 0
Barnyardgrass plant response rating (bamyardgrass; [4]): 0
Wild oats plant response rating (wild oat; [5]): 1
Plant response rating, Wild oats (wild oat; [7]): 3
Plant response rating, Wild oats (wild oat; [8]): 0
Wild oats plant response rating (wild oat; [9]): 4
Wild oats plant response rating (wild oat; [11]): 9
Wild oats plant response rating (wild oat; [12]): 0
Nutsedge plant response rating (purple nutsedge; [5]): 0
Plant response rating, Nutsedge (purple nutsedge; [7]): 0
Plant response rating, Nutsedge (purple nutsedge; [8]): 0
Nutsedge plant response rating (purple nutsedge; [9]): 0
Nutsedge plant response rating (purple nutsedge; [11]): 0
Nutsedge plant response rating (purple nutsedge; [12]): 0
Corn plant response rating (corn; [5]): 0
Corn plant response rating (corn; [6]): 0
Plant response rating, Corn (corn; [7]): 4
Plant response rating, Corn (corn; [8]): 0
Corn plant response rating (corn; [9]): 0
Corn plant response rating (corn; [11]): 5
Corn plant response rating (corn; [12]): 0
Sugarbeets plant response rating (sugar beet; [5]): 0
Plant response rating, Sugarbeets (sugar beet; [7]): 0
Plant response rating, Sugarbeets (sugar beet; [8]): 0
Sugarbeets plant response rating (sugar beet; [9]): 2
Sugarbeets plant response rating (sugar beet; [11]): 5
Sugarbeets plant response rating (sugar beet; [12]): 0
Wheat plant response rating (wheat; [5]): 0
Plant response rating, Wheat (wheat; [7]): 2
Plant response rating, Wheat (wheat; [8]): 0
Wheat plant response rating (wheat; [9]): 0
Wheat plant response rating (wheat; [11]): 6
Wheat plant response rating (wheat; [12]): 0
Rape plant response rating (rape; [5]): 0
Plant response rating, Rape (rape; [7]): 0
Plant response rating, Rape (rape; [8]): 0
Rape plant response rating (rape; [9]): 0
Rape plant response rating (rape; [11]): 9
Rape plant response rating (rape; [12]): 0
Bedstraw plant response rating (bedstraw; Rate 125 g/ha, scale 0 to 10, 0 is no effect, 10 is complete control): 3
Bedstraw plant response rating (bedstraw; Rate 250 g/ha, scale 0 to 10): 5
Bedstraw plant response rating (bedstraw; Rate 62 g/ha, scale 0 to 10 (0 no effect, 10 complete control)): 0
Crabgrass plant response rating (crabgrass; [5]): 5
Crabgrass plant response rating (crabgrass; [6]): 8
Plant response rating, Crabgrass (crabgrass; [7]): 9
Plant response rating, Crabgrass (crabgrass; [8]): 9
Crabgrass plant response rating (crabgrass; [9]): 10
Crabgrass plant response rating (crabgrass; [11]): 10
Crabgrass plant response rating (crabgrass; [12]): 2
Redroot pigweed plant response rating (pigweed; [5]): 0
Plant response rating, Redroot pigweed (pigweed; [7]): 2
Plant response rating, Redroot pigweed (pigweed; [8]): 0
Redroot pigweed plant response rating (pigweed; [11]): 10
Redroot pigweed plant response rating (pigweed; [12]): 0
Soybean plant response rating (soybean; [5]): 5
Plant response rating, Soybean (soybean; [7]): 7
Plant response rating, Soybean (soybean; [8]): 0
Soybean plant response rating (soybean; [9]): 1
Soybean plant response rating (soybean; [11]): 3
Soybean plant response rating (soybean; [12]): 3
Plant response rating, S. Flatsedge (0 to 10 scale, 0 is no effect, 10 is complete control) (smallflower flatsedge; [1]): 0
S. Flatsedge plant response rating (0 to 10 scale, 0 is no effect, 10 is complete control) (smallflower flatsedge; [2]): 0
S. Flatsedge plant response rating (smallflower flatsedge; [3]): 0
S. Flatsedge plant response rating (smallflower flatsedge; [4]): 0
B. signalgrass plant response rating (surinam grass; [5]): 2
B. signalgrass plant response rating (surinam grass; Postemergence, Rate 250 g/ha, scale 0 to 10, 0 no effect, 10 complete control): 6
Plant response rating, B. signalgrass (surinam grass; [7]): 8
Plant response rating, B. signalgrass (surinam grass; [8]): 6
B. signalgrass plant response rating (surinam grass; [9]): 7
B. signalgrass plant response rating (surinam grass; [10]): 8
B. signalgrass plant response rating (surinam grass; [11]): 9
B. signalgrass plant response rating (surinam grass; [12]): 1
Plant response rating, Ducksalad (0 to 10 scale, 0 is no effect, 10 is complete control) (duck salad; [1]): 0
Ducksalad plant response rating (0 to 10 scale, 0 is no effect, 10 is complete control) (duck salad; [2]): 0
Ducksalad plant response rating (duck salad; [3]): 0
Ducksalad plant response rating (duck salad; [4]): 0
